Paper PMC9325861, “Mouse precision-cut liver slices as an ex vivo model to study drug-induced cholestasis” (Archives of Toxicology, 2022)
“And” between values parts separate entries of the source, which are not always exact repeats. Equal values may be shown once. Where a name gives a salt, the structure may show the parent alone.

Tests used:
[1] = test system: mouse PCLS; experiment: LC–MS/MS quantification of intracellular BAs in mouse PCLS; format: cell-based; details: 48 h
Description: In short, freshly prepared PCLS were transferred to 12-well plates (Greiner bio-one GmbH, Austria), one slice per well. […] The composition of the human-like BA mixture was based on serum concentrations in mice and humans, measured by […]. […] A Shimadzu Nexera X2 HPLC system with binary pumps was interfaced to a Thermo Scientific TSQ Quantum ultra-triple quadrupole mass spectrometer. The BA analysis was performed by liquid chromatography-tandem mass spectrometry (LC-MS/MS). Xcalibur software version 2.0.7 by Thermo Scientific was applied in the data processing. […] Phenomenex, Utrecht, the Netherlands) reversed-phase column was used to separate the BAs. The column and autosampler temperatures were set at 55 °C and 4 °C, respectively. The injection volume was 15 μL, and the flow was set at 0.3 mL/min. […] Intracellular BA concentrations in PCLS were measured by LC-MS/MS. Sample preparation for these measurements of intracellular BAs was performed as follows. […] Hereafter, three slices for each condition were pooled in a 1.5-mL test tube, snap-frozen in liquid nitrogen and stored at -80 °C until analysis. […] Samples were subsequently centrifuged for 15 min at 15 °C and 13,000 rpm. The supernatant was collected in a new tube, and the samples were concentrated using a Concentrator plus centrifuge (Eppendorf, Germany). […] The concentrations of CA, CDCA, DCA, LCA, UDCA, HDCA, […] and GCA were determined with MRM-based LC-MS as described above.

[2] = test system: rat PCLS; design: method as in Starokozhko et al. [2017a]; details: in the presence of BAs, ref Starokozhko et al. [2017a]; cited from earlier work
[3] = test system: Bsep; experiment: Western blot of Bsep protein in mouse PCLS; format: cell-based; details: 48 h
Description: In short, freshly prepared PCLS were transferred to 12-well plates (Greiner bio-one GmbH, Austria), one slice per well.
In brief, the protein was extracted from three slices per treatment, and protein samples were denatured (75 °C for 10 min). […] Gels were blotted onto 0.2-μm polyvinylidene fluoride membranes using a Trans-Blot Turbo Transfer System (Bio-Rad, Munich, Germany), set to ramp up to 25 V in 15 min, at a constant current of 2.5 A. Membranes were then treated for 1 h with a protein blocking agent to prevent non-specific binding of antibodies, and incubated at 4 °C overnight with Bsep primary antibody (monoclonal antibody rabbit anti-Bsep, 1:2500, Tebu-Bio, Le Perray-en-Yvelines, France), Ntcp primary antibody (polyclonal antibody, rabbit anti-Ntcp, 1:2000, Tebu-Bio), and vinculin (116 kDa) primary antibody (monoclonal antibody, mouse anti-Vinculin, 1:500, Santa Cruz, California, USA). The following day, membranes were incubated with matching secondary antibodies for 1 h (Goat anti-rabbit HRP (Bsep and Ntcp), 1:2000; Rabbit anti-mouse HRP (vinculin), 1:5000, Dako, Santa Clara). Proteins were then visualized by adding Clarity Western ECL blotting substrate (Bio-Rad, Munich, Germany) and using a ChemiDoc Touch Imaging System (BioRad, Munich, Germany) for imaging of the resulting chemiluminescence. Afterward, Bsep and Ntcp expression was normalized by vinculin expression.

[4] = with humanized BA mixture, CPZ 15 µM, CSA 1 µM, GB 25 µM
[5] = with humanized BA mixture, CPZ 30 µM, CSA 6 µM, GB 65 µM
[6] = without BA mixture, CPZ 15 µM, CSA 1 µM, GB 25 µM
[7] = without BA mixture, CPZ 30 µM, CSA 6 µM, GB 65 µM

CN(C)CCCN1c2ccccc2Sc2ccc(Cl)cc21 [CPZ, Chlorpromazine hydrochloride]
Effect on total intracellular BA concentration ([1]; in the absence of the BA mixture): increased the total intracellular concentration of BAs | Intracellular CA concentration [1, 4]: 259.9±32.0 pmol/mg protein | Intracellular CDCA concentration [1, 4]: 20.9±1.8 pmol/mg protein | Intracellular DCA concentration [1, 4]: 87.7±14.0 pmol/mg protein | Intracellular GCA concentration [1, 4]: 34.7±16.0 pmol/mg protein | Intracellular HDCA concentration [1, 4]: 4.0±2.5 pmol/mg protein | Intracellular LCA concentration [1, 4]: 3.4±1.3 pmol/mg protein | Intracellular TCA concentration [1, 4]: 244.1±42.8 pmol/mg protein | Intracellular TCDCA concentration [1, 4]: 10.1±0.2 pmol/mg protein | Intracellular TDCA concentration [1, 4]: 14.1±0.8 pmol/mg protein | Intracellular THDCA concentration [1, 4]: 9.4±1.4 pmol/mg protein | Intracellular UDCA concentration [1, 4]: 34.2±4.0 pmol/mg protein | Total intracellular concentration of 11 BAs [1, 4]: 722.5±95.4 pmol/mg protein | Intracellular CA concentration [1, 5]: 314.1±29.7 pmol/mg protein | Intracellular CDCA concentration [1, 5]: 41.3±6.4 pmol/mg protein | Intracellular DCA concentration [1, 5]: 297 pmol/mg protein and 297.9±25.1 pmol/mg protein | Intracellular GCA concentration [1, 5]: 26.1±3.5 pmol/mg protein | Intracellular HDCA concentration [1, 5]: 13.6±3.9 pmol/mg protein | Intracellular LCA concentration [1, 5]: 14.9±8.6 pmol/mg protein | Intracellular TCA concentration [1, 5]: 351.2±67.0 pmol/mg protein | Intracellular TCDCA concentration [1, 5]: 18.2±5.3 pmol/mg protein | Intracellular TDCA concentration [1, 5]: 44.3±5.1 pmol/mg protein | Intracellular THDCA concentration [1, 5]: 9.0±3.0 pmol/mg protein | Intracellular UDCA concentration [1, 5]: 46.3±3.0 pmol/mg protein | Effect on total intracellular BA concentration ([1]; with humanized BA mixture, vs control): intracellular accumulation of BAs | Intracellular CA concentration [1, 6]: 0.3±0.0 pmol/mg protein | Intracellular CDCA concentration [1, 6]: 0.2±0.2 pmol/mg protein | Intracellular DCA concentration [1, 6]: 0.1±0.1 pmol/mg protein | Intracellular GCA concentration [1, 6]: 0.0±0.0 pmol/mg protein | Intracellular HDCA concentration [1, 6]: 0.0±0.0 pmol/mg protein | Intracellular LCA concentration [1, 6]: 0.2±0.1 pmol/mg protein | Intracellular TCA concentration [1, 6]: 0.8±0.1 pmol/mg protein | Intracellular TCDCA concentration [1, 6]: 14.4±1.7 pmol/mg protein | Intracellular TDCA concentration [1, 6]: 0.1±0.1 pmol/mg protein | Intracellular THDCA concentration [1, 6]: 2.4±0.3 pmol/mg protein | Intracellular UDCA concentration [1, 6]: 0.0±0.0 pmol/mg protein | Total intracellular concentration of 11 BAs [1, 6]: 18.7±0.0 pmol/mg protein | Intracellular CA concentration [1, 7]: 0.4±0.1 pmol/mg protein | Intracellular CDCA concentration [1, 7]: 0.4±0.2 pmol/mg protein | Intracellular DCA concentration [1, 7]: 0.1±0.1 pmol/mg protein | Intracellular GCA concentration [1, 7]: 0.0±0.0 pmol/mg protein | Intracellular HDCA concentration [1, 7]: 0.0±0.0 pmol/mg protein | Intracellular LCA concentration [1, 7]: 0.3±0.2 pmol/mg protein | Intracellular TCA concentration [1, 7]: 1.2±0.1 pmol/mg protein | Intracellular TCDCA concentration [1, 7]: 25.0±2.2 pmol/mg protein | Intracellular TDCA concentration [1, 7]: 0.1±0.1 pmol/mg protein | Intracellular THDCA concentration [1, 7]: 5.2±0.7 pmol/mg protein | Intracellular UDCA concentration [1, 7]: 0.0±0.0 pmol/mg protein | Total intracellular concentration of 11 BAs [1, 7]: 32.7±0.0 pmol/mg protein | Concentration reaching severe toxicity [2]: 36 µM | Bsep protein expression (western blot band intensity) ([3]; non-toxic concentration (CPZ 15 μM, CSA 1 μM), in the presence of the BA mixture): less pronounced | Bsep protein expression (western blot band intensity) ([3]; non-toxic concentration (CPZ 15 μM, CSA 1 μM, GB 25 μM), vs control with no drug and no BAs): significant decrease in band intensity
